From patent US20080139794A1, “Accelerants for the modification of non-natural amino acids and non-natural amino acid polypeptides” (Ambrx, Inc., priority 2005, published 2008) come the findings set out here.

Experiment [1] concerns scFv 108 259-pAcF. As to the kind of experiment: One step dimerization of scFv-pAcF with homobifunctional 2 K hydroxylamine PEG linker (SDS-PAGE). As to conditions: 47 mM acetic hydrazide; 147 μM homobifunctional 2 K PEG linker; pH 4.0; 28° C.; without accelerant very little dimer after 20 hours. The protocol: Single chain Fv (scFv) 108 protein with para-acetylphenylalanine substituted at position 259 (scFv 108 259-pAcF) was used the following conjugation experiment. scFv 108 259-pAcF in storage buffer was buffer exchanged into reaction buffer (150 mM NaCl, 20 mM NaOAc, 5 mM EDTA, pH 4.0) using a PD 10 column. The protein solution was concentrated to 0.5 mM, mixed with hydroxylamine homobifunctional 2 K PEG linker 2.5 mM stock solution and supplemented with acetic hydrazide as accelerant. The final reaction mixture consisted of 147 μM homobifunctional 2 K PEG linker, the corresponding concentration of pAcF-substituted scFv and 47 mM acetic hydrazide. The reaction mixtures were incubated at 28° C. and analyzed at different time points (6 hours, 20 hours, 44 hours) by SDS-PAGE (FIG. 2).
To make the one-step reaction more efficient and more practical with the homobifunctional 2 K PEG linker, accelerants were used to facilitate the dimerization process. Without accelerant, very little dimer product could be detected after 20 hours by SDS-PAGE. Lane 4 of the 6 hour, 20 hour, and 44 hour gels show reaction mixtures with a scFv:PEG linker molar ratio of 2.0:1 without the accelerant acetic hydrazide. […] Lane 1 of the 6 hour, 20 hour, and 44 hour gels show reaction mixtures with a scFv:PEG linker molar ratio of 1.6:1 with acetic hydrazide. […]

For the next experiment, the target named is wild type hGH (Homo sapiens, UniProt P01241). Description: LCMS analysis of hGH after incubation with accelerant. As to conditions: wild type hGH 5.8 mg/ml; up to 200 mM accelerant; 28° C.; 48 hour. The protocol:
In hGH reaction buffer, wild type hGH (5.8 mg/ml) was incubated with various concentrations of the accelerant acetic hydrazide (200 mM, 100 mM, 50 mM, 25 mM, 12.5 mM, 6.25 mM and 0 mM) at 28° C. for 48 hours. The accelerant was removed through dialysis (10 k MWCO). The resulting protein solutions were analyzed by LCMS (FIG. 8).]
The measured molecular weights of hGH in all the conditions are same and match theoretical value 22256.

The test system of experiment [2] is scFv 108 259-pAcF. As to the kind of experiment: Mono hydroxylamine 30 K PEG and scFv-pAcF conjugation (SDS-PAGE). As to conditions: 28° C. The protocol:
scFv 108 259-pAcF 0.5 mM stock solution in reaction buffer mentioned above (10 μl) is mixed with various amounts of mono hydroxylamine 30 K PEG 2.5 mM stock solution, 2.2 μl of 200 mM acetic hydrazide stock solution and reaction buffer. The reaction mixtures with a final reaction volume of 22 μl have different molar ratios of scFv:PEG (1:3 or 1:5). The accelerating effect of acetic hydrazide on conjugation of mono hydroxylamine 30 K PEG and scFv was evaluated at protein and PEG molar ratio of 1:3 and 1:5 with and without accelerant. The reaction mixtures were incubated at 28° C. and were analyzed at different time points (20 hours, 44 hours) by SDS-PAGE (FIG. 3). Lanes 1, 2, and 3 show 100%, 20%, and 10% of the starting scFv-pAcF, respectively. Lane 4 of the 20 hour and 44 hour gels show reaction mixtures with a scFv:PEG molar ratio of 1:3 with 20 mM acetic hydrazide. Lane 5 of the 20 hour and 44 hour gels show reaction mixtures with a scFv:PEG molar ratio of 1:3 without accelerant. Lane 6 of the 20 hour and 44 hour gels show reaction mixtures with a scFv:PEG molar ratio of 1:5 with 20 mM acetic hydrazide. […]
Similarly, the relative conjugation efficiency of different concentrations of the accelerant acetic hydrazide (5 mM, 20 mM, 80 mM) with a scFv:30 K PEG mono hydroxylamine molar ratio of 1:2 were evaluated (FIG. 4). […]

Experiment [3] deals with hGH with para-acetylphenylalanine substituted for tyrosine at position 35 (hGH-pAcF), oxime formation with mono hydroxylamine 30 K PEG. Description: Screening of potential accelerants using 30 K PEG hGH-pAcF conjugation (SDS-PAGE). Also noted: species or system human. Conditions: 50 mM accelerant; hGH 8 mg/ml; hGH:PEG 1:2; 28° C.; 16 hours. Here is the method:
Human growth hormone (hGH) with para-acetylphenylalanine substituted for tyrosine at position 35 was used to screen a panel of 20 compounds (FIG. 5). hGH was buffer exchanged into hGH reaction buffer (20 mM NaOAc, 20 mg/ml glycine, 5 mg/ml Mannitol, 1 mM EDTA, pH 4.0) using a PD 10 column, and concentrated to 10 mg/ml using a Centrocon (10 K MWCO) concentrator. hGH (10 μl) was mixed with 3.6 μl mono hydroxylamine 30 K PEG (2.5 mM), 3 μl of potential accelerant solution (200 mM in hGH reaction buffer) and buffer to give a final volume of 30 μl. The molar ratio of hGH:PEG was 1:2. The reaction mixtures were incubated at 28° C. for 16 hours and 36 hours and analyzed by SDS-PAGE (FIG. 6). The last lane in each gel was a control reaction (no accelerant). Compounds 6, 7, 8, 10, and 20 were accelerants. Two compounds from the panel, compounds 7 and 20 (acetic hydrazide) (pictured in FIG. 5), were accelerants and were further evaluated under similar reaction conditions with a higher hGH protein concentration (8 mg/ml). Lane 1 was a reaction mixture with a hGH:PEG molar ratio of 1:2 and 50 mM of accelerant compound 7. Lane 2 was a reaction mixture with a hGH:PEG molar ratio of 1:2 and 50 mM of accelerant compound 20. Lane 3 was a reaction mixture with a hGH:PEG molar ratio of 1:2 with no accelerant. Lane 4 was a reaction mixture with a hGH:PEG molar ratio of 1:5 with no accelerant.

Sequence of wild type hGH (P01241 with tags, fused parts or gaps): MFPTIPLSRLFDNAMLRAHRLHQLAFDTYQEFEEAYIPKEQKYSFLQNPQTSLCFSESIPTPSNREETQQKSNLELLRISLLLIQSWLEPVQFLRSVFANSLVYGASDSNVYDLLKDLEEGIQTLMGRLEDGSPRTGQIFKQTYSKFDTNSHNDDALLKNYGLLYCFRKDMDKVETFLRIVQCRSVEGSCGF

For the molecule `CC(=O)NN` [Compound 20, acetic hydrazide], the dimer product formation result in the experiment with scFv 108 259-pAcF [1] was “the dimer product appeared after 6 hours”. The “covalent modification of protein by accelerant (LCMS)” value at wild type hGH is “no covalent modification could be detected”. The “relative conjugation efficiency at different accelerant concentrations” value with scFv 108 259-pAcF [2] (5 mM, 20 mM, 80 mM acetic hydrazide, scFv:PEG 1:2) is listed as “the higher concentration of accelerant, the faster the conjugation”. For the same molecule, in the experiment on scFv 108 259-pAcF [2] (20 mM acetic hydrazide, scFv:PEG 1:3 and 1:5, with and without accelerant, 20 hours, 44 hours), the “accelerating effect on conjugation of mono hydroxylamine 30 K PEG and scFv” value is “accelerates the conjugation reaction”. Besides, the “acceleration of hGH-pAcF / 30 K PEG conjugation at higher protein concentration” value in experiment [3] is given as “shown to catalyze the reaction”.
